The source of these data is patent publication US9492460B2, “Carbazole compounds useful as bromodomain inhibitors” (Bristol-Myers Squibb Company, priority 2013, dated 2016).

The experiment addresses T1, bromodomain BRD4 (44-168), BRD4 (333-460), and BRD4 (1-477 or 44-460) (Homo sapiens, UniProt O60885).
T1 construct: BRD4(44-168), BRD4(333-460), BRD4(44-460), BRD4(1-477), O60885-1; fused on or other part: N-terminal BirA biotinylation motif, biotinylated; The TVMV-cleavable His6 tag is removed, except in some BRD4(44-460) runs detected with anti-His terbium cryptate
The experiment is described as follows: Time Resolved Fluorescence Resonance Energy Transfer (TR-FRET) binding assay. The note with it: one of the FRET assays described.

Structures are written as SMILES. pIC50: −log10 of the molar value.

Usually pIC50 stands for the negative decadic logarithm of the IC50, by convention in mol/L. Read a high pIC50 as a low IC50. Compound `Cc1noc(C)c1-c1cc(C(N)=O)c2c3cc(C(=O)N4CC(F)(F)C4)ccc3n(C(C)c3ccccc3)c2c1` (racemic) [Example 96, 6-((3,3-difluoro-1-azetidinyl)carbonyl)-2-(3,5-dimethyl-4-isoxazolyl)-9-(1-phenylethyl)-9H-carbazole-4-carboxamide] gave a pIC50 greater than 7.30.

`Cc1noc(C)c1-c1cc(C(N)=O)c2c3ccc(C(C)(C)O)cc3n(C[C@@]3(F)C[C@@H]4CC[C@H]3O4)c2c1` (relative stereo) [Example 225, rel-2-(dimethyl-1,2-oxazol-4-yl)-9-{[(1R,2S,4S)-2-fluoro-7-oxabicyclo[2.2.1]heptan-2-yl]methyl}-7-(2-hydroxypropan-2-yl)-9H-carbazole-4-carboxamide]: the pIC50 is greater than 7.30.

On to `Cc1noc(C)c1-c1cc(C(N)=O)c2c3cc(C(=O)N4CC(F)(F)C4)ccc3n(C(C)c3ccccc3)c2c1` (single isomer, unassigned) [Example 97, 6-((3,3-difluoro-1-azetidinyl)carbonyl)-2-(3,5-dimethyl-4-isoxazolyl)-9-(1-phenylethyl)-9H-carbazole-4-carboxamide], for which the pIC50 was greater than 7.30.

Turning to `Cc1noc(C)c1-c1cc(C(N)=O)c2c3cc(C(=O)N4CC(F)(F)C4)ccc3n(C(C)c3ccccc3)c2c1` (single isomer, unassigned) [Example 98, 6-((3,3-difluoro-1-azetidinyl)carbonyl)-2-(3,5-dimethyl-4-isoxazolyl)-9-(1-phenylethyl)-9H-carbazole-4-carboxamide], the pIC50 was greater than 7.30.

Regarding `COc1ccc2c(c1)c1c(C(N)=O)cc(-c3c(C)noc3C)cc1n2C(C)c1ccccc1` (single isomer, unassigned) [Example 179, 2-(3,5-dimethyl-4-isoxazolyl)-6-methoxy-9-(1-phenylethyl)-9H-carbazole-4-carboxamide], the pIC50 is greater than 7.30.

For `COc1ccc2c(c1)c1c(C(N)=O)cc(-c3c(C)noc3C)cc1n2C(C)c1ccccc1` (single isomer, unassigned) [Example 180, 2-(3,5-dimethyl-4-isoxazolyl)-6-methoxy-9-(1-phenylethyl)-9H-carbazole-4-carboxamide], the pIC50 is greater than 7.30.

For the compound `Cc1noc(C)c1-c1cc(C(N)=O)c2c3ccc(C(C)(C)O)cc3n(C(c3ccccc3)C3CCOCC3)c2c1` (single isomer, unassigned) [Example 198], the pIC50 is greater than 7.30.

`Cc1noc(C)c1-c1cc(C(N)=O)c2c3ccc(C(C)(C)O)cc3n(C(c3ccccc3)C3CCOCC3)c2c1` (single isomer, unassigned) [Example 199] had a negative logarithm of the IC50 (pIC50) greater than 7.30.

As for `Cc1noc(C)c1-c1cc(C(N)=O)c2c3ccc(C(C)(C)O)cc3n(C(c3ccc(F)cc3)C3CCOCC3)c2c1` (single isomer, unassigned) [Example 219, 2-(Dimethyl-1,2-oxazol-4-yl)-9-[(4-fluorophenyl)(oxan-4-yl)methyl]-7-(2-hydroxypropan-2-yl)-9H-carbazole-4-carboxamide], the negative-log IC50 (pIC50) was greater than 7.30.

The compound `Cc1noc(C)c1-c1cc(C(N)=O)c2c3ccc(C(C)(C)O)cc3n(C(c3ccc(F)cc3)C3CCOCC3)c2c1` (single isomer, unassigned) [Example 220, 2-(Dimethyl-1,2-oxazol-4-yl)-9-[(4-fluorophenyl)(oxan-4-yl)methyl]-7-(2-hydroxypropan-2-yl)-9H-carbazole-4-carboxamide] gave a negative logarithm of the IC50 (pIC50) greater than 7.30.

As to `Cc1noc(C)c1-c1cc(C(N)=O)c2c3ccc(C(C)(C)O)cc3n(C(c3ccccc3)C3(F)CCC3)c2c1` (single isomer, unassigned) [Example 221, 2-(Dimethyl-1,2-oxazol-4-yl)-9-[(1-fluorocyclobutyl)(phenyl)methyl]-7-(2-hydroxypropan-2-yl)-9H-carbazole-4-carboxamide], the pIC50 is greater than 7.30.

For `Cc1noc(C)c1-c1cc(C(N)=O)c2c3ccc(C(C)(C)O)cc3n(C(c3ccccc3)C3(F)CCC3)c2c1` (single isomer, unassigned) [Example 222, 2-(Dimethyl-1,2-oxazol-4-yl)-9-[(1-fluorocyclobutyl)(phenyl)methyl]-7-(2-hydroxypropan-2-yl)-9H-carbazole-4-carboxamide], the pIC50 was greater than 7.30.

Compound `Cc1noc(C)c1-c1cc(C(N)=O)c2c3ccc(C(C)(C)O)c(F)c3n(C(c3ccc(F)cc3)C3CCOCC3)c2c1` (single isomer, unassigned) [Example 223, 2-(Dimethyl-1,2-oxazol-4-yl)-8-fluoro-9-[(4-fluorophenyl)(oxan-4-yl)methyl]-7-(2-hydroxypropan-2-yl)-9H-carbazole-4-carboxamide] showed a pIC50 greater than 7.30.

In the case of `Cc1noc(C)c1-c1cc(C(N)=O)c2c3ccc(C(C)(C)O)c(F)c3n(C(c3ccc(F)cc3)C3CCOCC3)c2c1` (single isomer, unassigned) [Example 224, 2-(Dimethyl-1,2-oxazol-4-yl)-8-fluoro-9-[(4-fluorophenyl)(oxan-4-yl)methyl]-7-(2-hydroxypropan-2-yl)-9H-carbazole-4-carboxamide], the pIC50 is greater than 7.30.

The compound `Cc1noc(C)c1-c1cc(C(N)=O)c2c3ccc(C(C)(C)O)c(F)c3n(C(c3ccccc3)C3CCC(F)(F)CC3)c2c1` (single isomer, unassigned) [Example 226, 9-[(4,4-difluorocyclohexyl)(phenyl)methyl]-2-(dimethyl-1,2-oxazol-4-yl)-8-fluoro-7-(2-hydroxypropan-2-yl)-9H-carbazole-4-carboxamide] showed a pIC50 greater than 7.30.

Compound `Cc1noc(C)c1-c1cc(C(N)=O)c2c3ccc(C(C)(C)O)c(F)c3n(C(c3ccccc3)C3CCC(F)(F)CC3)c2c1` (single isomer, unassigned) [Example 227, 9-[(4,4-difluorocyclohexyl)(phenyl)methyl]-2-(dimethyl-1,2-oxazol-4-yl)-8-fluoro-7-(2-hydroxypropan-2-yl)-9H-carbazole-4-carboxamide] had a pIC50 greater than 7.30.

As for `Cc1noc(C)c1-c1cc(C(N)=O)c2c3ccc(C(C)(C)O)c(F)c3n(C(CCC(F)(F)F)c3ccccc3)c2c1` (single isomer, unassigned) [Example 230, 2-(dimethyl-1,2-oxazol-4-yl)-8-fluoro-7-(2-hydroxypropan-2-yl)-9-[4,4,4-trifluoro-1-phenylbutyl]-9H-carbazole-4-carboxamide], the negative-log IC50 (pIC50) was greater than 7.30.

In turn, `Cc1noc(C)c1-c1cc(C(N)=O)c2c3ccc(C(C)(C)O)c(F)c3n(C(CCC(F)(F)F)c3ccccc3)c2c1` (single isomer, unassigned) [Example 231, 2-(dimethyl-1,2-oxazol-4-yl)-8-fluoro-7-(2-hydroxypropan-2-yl)-9-[4,4,4-trifluoro-1-phenylbutyl]-9H-carbazole-4-carboxamide] had a negative-log IC50 (pIC50) greater than 7.30.

The compound `Cc1nnn(C)c1-c1cc(C(N)=O)c2c3ccc(C(C)(C)O)cc3n(C(c3ccccc3)C3CCOCC3)c2c1` (single isomer, unassigned) [Example 232, 2-(1,4-Dimethyl-1H-1,2,3-triazol-5-yl)-7-(2-hydroxypropan-2-yl)-9-(phenyl(tetrahydro-2H-pyran-4-yl)methyl)-9H-carbazole-4-carboxamide] had a negative-log IC50 (pIC50) greater than 7.30.

Consider `Cc1nnn(C)c1-c1cc(C(N)=O)c2c3ccc(C(C)(C)O)cc3n(C(c3ccccc3)C3CCOCC3)c2c1` (single isomer, unassigned) [Example 233, 2-(1,4-Dimethyl-1H-1,2,3-triazol-5-yl)-7-(2-hydroxypropan-2-yl)-9-(phenyl(tetrahydro-2H-pyran-4-yl)methyl)-9H-carbazole-4-carboxamide], for which the pIC50 was greater than 7.30.

The compound `Cc1noc(C)c1-c1ccc2c(c1)[nH]c1ccc(C(=O)N3CCOCC3)cc12` [Example 1, 2-(3,5-dimethyl-4-isoxazolyl)-6-(4-morpholinylcarbonyl)-9H-carbazole] had a pIC50 greater than 6.30.

`CCn1c2ccc(C(=O)N3C[C@@H](C)O[C@@H](C)C3)cc2c2ccc(-c3c(C)noc3C)cc21` [Example 2, 2-(3,5-dimethyl-4-isoxazolyl)-6-((cis-2,6-dimethyl-4-morpholinyl)carbonyl)-9-ethyl-9H-carbazole] showed a pIC50 greater than 6.30.

Turning to `CCCn1c2ccc(C(=O)N3CC(C)OC(C)C3)cc2c2ccc(-c3c(C)noc3C)cc21` (centres unmarked) [Example 3], the negative-log IC50 (pIC50) is greater than 6.30.

Compound `Cc1noc(C)c1-c1ccc2c3cc(C(=O)N4CC(C)OC(C)C4)ccc3n(CC(C)C)c2c1` (centres unmarked) [Example 4] had a pIC50 greater than 6.30.

`Cc1noc(C)c1-c1ccc2c3cc(C(=O)N4CC(C)OC(C)C4)ccc3n(CC3CC3)c2c1` (centres unmarked) [Example 5] had a negative logarithm of the IC50 (pIC50) greater than 6.30.

In turn, `Cc1noc(C)c1-c1ccc2c3cc(C(=O)N4CC(C)OC(C)C4)ccc3n(CCF)c2c1` (centres unmarked) [Example 6] gave a negative logarithm of the IC50 (pIC50) greater than 6.30.

`Cc1noc(C)c1-c1ccc2c3cc(C(=O)N4CC(C)OC(C)C4)ccc3n(CC(F)F)c2c1` (centres unmarked) [Example 7]: the pIC50 is greater than 6.30.

`COCCn1c2ccc(C(=O)N3CC(C)OC(C)C3)cc2c2ccc(-c3c(C)noc3C)cc21` (centres unmarked) [Example 8] had a negative-log IC50 (pIC50) greater than 6.30.

`Cc1noc(C)c1-c1ccc2c3cc(C(=O)N4CC(C)OC(C)C4)ccc3n(Cc3ccccc3)c2c1` (centres unmarked) [Example 9] had a negative-log IC50 (pIC50) greater than 7.30.

`Cc1noc(C)c1-c1ccc2c3cc(C(=O)N4CC(C)OC(C)C4)ccc3n(Cc3ccccc3Cl)c2c1` (centres unmarked) [Example 11] had a pIC50 greater than 6.30.

In the case of `Cc1noc(C)c1-c1ccc2c3cc(C(=O)N4CC(C)OC(C)C4)ccc3n(Cc3ccc(Cl)cc3)c2c1` (centres unmarked) [Example 12], the pIC50 is greater than 6.30.

Consider `Cc1noc(C)c1-c1ccc2c3cc(C(=O)N4CC(C)OC(C)C4)ccc3n(Cc3cccc(Cl)c3)c2c1` (centres unmarked) [Example 13], for which the pIC50 was greater than 6.30.

As for `COc1cccc(Cn2c3ccc(C(=O)N4CC(C)OC(C)C4)cc3c3ccc(-c4c(C)noc4C)cc32)c1` (centres unmarked) [Example 14], the pIC50 was greater than 6.30.

`COc1ccccc1Cn1c2ccc(C(=O)N3CC(C)OC(C)C3)cc2c2ccc(-c3c(C)noc3C)cc21` (centres unmarked) [Example 15] showed a pIC50 greater than 6.30.

`Cc1noc(C)c1-c1ccc2c3cc(C(=O)N4CC(C)OC(C)C4)ccc3n(Cc3ccccc3F)c2c1` (centres unmarked) [Example 16] had a pIC50 greater than 5.12.
